Patent US9062087B2, “Phenyl C-glucoside derivatives, preparation methods and uses thereof” (Tianjin Institute of Pharmaceutical Research, priority 2010, dated 2015)

System: healthy ICR mice
Experiment: glucose tolerance test in fasted ICR mice (in vivo hypoglycemic model), serum glucose by glucose oxidase method
Conditions: ICR mice fasted 16 h, dosage 10 mg/kg in 1% sodium carboxymethylcellulose, 2 g/kg glucose i.p. 2 h after test compound (Dapagliflozin: 1.5 h); for blood glucose at 0.5 h: serum 0.5 h after glucose; for blood glucose at 1 h: serum 1 h after glucose; for blood glucose at 2 h: serum 2 h after glucose; for blood glucose at 3 h: serum 3 h after glucose; for blood glucose at 4 h: serum 4 h after glucose
Procedure: A suspension of the test compounds with […] was prepared by dissolving the sample in 1% sodium carboxymethylcellulose solution. The administration dosage is 0.2 ml/20 g body weight, which equals to a dosage of 10 mg/kg.
Female and male of healthy ICR mice are half to half, and the weight is 20-24 g, in accordance with standard level one. Animals were fasted for 16 hours. 2 g/kg glucose in saline was intraperitoneally injected 2 hours after the test compounds (for Dapagliflozin, glucose was injected 1.5 hours after medicine), and blood samples were collected from mice tall vein using capillary at fixed times of 0.5 h, 1 h, 2 h, 3 h and 4 h after challenging with glucose. The sera were separated using centrifugation. The glucose oxidase method was used to measure glucose content of serum at different time points.

| Structure (SMILES) | blood glucose at 0.5 h [mg/dL] | blood glucose at 1 h [mg/dL] | blood glucose at 2 h [mg/dL] | blood glucose at 3 h [mg/dL] | blood glucose at 4 h [mg/dL] |
| --- | --- | --- | --- | --- | --- |
| CCOc1ccc(C(C)(C)c2cc([C@@H]3O[C@H](CO)[C@@H](O)[C@H](O)[C@H]3O)ccc2Cl)cc1 [Example 16, 1-{4-chloro-3-[(dimethyl)(4-ethyoxyphenyl)methyl]phenyl}-1-deoxy-β-D-glucopyranose] | 157.1 ± 21.3 | 137.0 ± 27.7 | 102.4 ± 17.5 | 88.1 ± 32.2 | 70.3 ± 14.2 |
| CCOc1ccc(C(OC)c2cc([C@@H]3O[C@H](CO)[C@@H](O)[C@H](O)[C@H]3O)ccc2Cl)cc1 (stereo partly drawn) [Example 53, 1-{4-chloro-3-[1-(4-ethyoxyphenyl)(methoxyl)methyl]phenyl}-1-deoxy-β-D-glucopyranose] | 199.0 ± 21.3 | 171.4 ± 36.1 | 110.2 ± 20.8 | 93.0 ± 17.7 | 69.6 ± 17.3 |
| CCOc1ccc(C(C)(F)c2cc([C@@H]3O[C@H](CO)[C@@H](O)[C@H](O)[C@H]3O)ccc2Cl)cc1 (stereo partly drawn) [Example 52, 1-{4-chloro-3-[1-(4-ethyoxyphenyl)-1-fluoroethyl]phenyl}-1-deoxy-β-D-glucopyranose] | 209.3 ± 30.4 | 175.1 ± 20.5 | 158.6 ± 31.1 | 101.2 ± 12.4 | 80.0 ± 13.2 |
| CCOc1ccc(Cc2cc([C@@H]3O[C@H](CO)[C@@H](O)[C@H](O)[C@H]3O)ccc2Cl)cc1 [Dapagliflozin, reference compound] | 277.1 ± 42.4 | 172.1 ± 34.1 | 92.1 ± 21.1 | 81.3 ± 20.1 | 60.0 ± 11.0 |
| CCOc1ccc(C(C)c2cc([C@@H]3O[C@H](CO)[C@@H](O)[C@H](O)[C@H]3O)ccc2Cl)cc1 (stereo partly drawn) [Example 36, 1-{4-chloro-3-[1-(4-ethyoxyphenyl)ethyl]phenyl}-1-deoxy-β-D-glucopyranose] | 189.1 ± 21.2 | 120.1 ± 10.2 | 113.0 ± 11.0 | 74.6 ± 21.0 | 69.1 ± 13.2 |
| CCOc1ccc(C(F)c2cc([C@@H]3O[C@H](CO)[C@@H](O)[C@H](O)[C@H]3O)ccc2Cl)cc1 (stereo partly drawn) [Example 1, 1-{4-chloro-3-[(4-ethyoxyphenyl)fluoromethyl]phenyl}-1-deoxy-β-D-glucopyranose] | 194.1 ± 41.3 | 161.1 ± 35.4 | 97.3 ± 31.2 | 69.1 ± 22.1 | 67.2 ± 17.1 |
| CCOc1ccc(C(C)(OC)c2cc([C@@H]3O[C@H](CO)[C@@H](O)[C@H](O)[C@H]3O)ccc2Cl)cc1 (stereo partly drawn) [Example 51, 1-{4-chloro-3-[1-(4-ethyoxyphenyl)-1-methoxyethyl]phenyl}-1-deoxy-β-D-glucopyranose] | 250.5 ± 33.1 | 158.2 ± 20.6 | 123.2 ± 33.1 | 101.2 ± 11.7 | 75.5 ± 21.4 |
